Test results: ChEMBL document CHEMBL3400001, “Tricyclic 1,5-naphthyridinone oxabicyclooctane-linked novel bacterial topoisomerase inhibitors as broad-spectrum antibacterial agents-SAR of left-hand-side moiety (Part-2)” (Bioorg Med Chem Lett, 2015)
≈ marks a conversion by molar mass, not a printed value.

Target: T1, Voltage-gated inwardly rectifying potassium channel KCNH2 (Homo sapiens, UniProt Q12809)
Experiment: Inhibition of human ERG by MK499 binding assay
Conditions: not given

T1 sequence (Q12809 whole entry): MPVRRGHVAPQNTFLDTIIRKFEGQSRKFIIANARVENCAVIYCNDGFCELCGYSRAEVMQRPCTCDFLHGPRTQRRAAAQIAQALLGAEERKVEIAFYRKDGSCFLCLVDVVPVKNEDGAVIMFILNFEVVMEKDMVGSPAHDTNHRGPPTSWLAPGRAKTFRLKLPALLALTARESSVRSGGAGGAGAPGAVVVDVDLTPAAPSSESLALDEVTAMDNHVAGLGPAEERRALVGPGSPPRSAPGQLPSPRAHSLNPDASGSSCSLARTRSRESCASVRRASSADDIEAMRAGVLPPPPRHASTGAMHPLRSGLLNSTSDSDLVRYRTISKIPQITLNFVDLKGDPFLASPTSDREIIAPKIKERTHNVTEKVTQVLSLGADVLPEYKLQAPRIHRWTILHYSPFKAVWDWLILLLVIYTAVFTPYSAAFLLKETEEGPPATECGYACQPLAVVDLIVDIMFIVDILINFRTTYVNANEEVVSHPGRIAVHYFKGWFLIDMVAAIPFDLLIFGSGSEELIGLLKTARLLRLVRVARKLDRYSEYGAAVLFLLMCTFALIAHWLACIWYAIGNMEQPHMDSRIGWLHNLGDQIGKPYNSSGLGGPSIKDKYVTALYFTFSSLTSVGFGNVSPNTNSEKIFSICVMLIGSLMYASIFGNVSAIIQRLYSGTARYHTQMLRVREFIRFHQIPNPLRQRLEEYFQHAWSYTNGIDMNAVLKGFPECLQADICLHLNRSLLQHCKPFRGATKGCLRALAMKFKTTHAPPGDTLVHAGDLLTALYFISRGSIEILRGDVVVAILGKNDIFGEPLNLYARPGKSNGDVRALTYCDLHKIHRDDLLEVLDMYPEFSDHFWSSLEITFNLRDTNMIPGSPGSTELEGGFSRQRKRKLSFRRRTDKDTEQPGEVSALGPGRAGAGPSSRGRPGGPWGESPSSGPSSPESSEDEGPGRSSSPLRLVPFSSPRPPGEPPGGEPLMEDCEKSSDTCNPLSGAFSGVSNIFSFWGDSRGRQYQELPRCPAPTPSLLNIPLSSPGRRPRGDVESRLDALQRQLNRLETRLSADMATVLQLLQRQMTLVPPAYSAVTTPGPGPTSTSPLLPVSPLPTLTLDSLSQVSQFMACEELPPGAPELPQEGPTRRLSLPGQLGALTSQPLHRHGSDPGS

SMILES | IC50
O=C1COc2ccc(CNC34CCC(C[C@]5(O)Cn6c(=O)c(F)cc7ncc(F)c5c76)(CC3)OC4)nc2N1 | > 60 µM
Cc1cc(=O)n2c3c(c(F)cnc13)[C@@](O)(CC13CCC(NCc4ccc5c(n4)NC(=O)CO5)(CC1)CO3)C2 | > 60 µM
O=C1COc2ccc(CNC34CCC(C[C@@]5(O)CN6C(=O)CCc7ncc(F)c5c76)(CC3)OC4)nc2N1 | > 60 µM
O=C1COc2ccc(CNC34CCC(CC5Cn6c(=O)ccc7ncc(F)c5c76)(CC3)OC4)nc2N1 (stereo in doubt; 10) | 12.3 µM
Cc1cc(=O)n2c3c(c(F)cnc13)[C@](O)(CC13CCC(NCc4ccc5c(n4)NC(=O)CO5)(CC1)CO3)C2 | > 60 µM
CO[C@]1(CC23CCC(NCc4ccc5c(n4)NC(=O)CO5)(CC2)CO3)Cn2c(=O)ccc3ncc(F)c1c32 | 24.5 µM

Tested on: Staphylococcus aureus
Experiment: Ratio of MIC for quinolone-resistant Staphylococcus aureus MS5935 to MIC for quinolone-[…]
Assay type: functional
Conditions: not given

SMILES | Ratio
O=C1COc2ccc(CNC34CCC(C[C@]5(O)Cn6c(=O)c(F)cc7ncc(F)c5c76)(CC3)OC4)nc2N1 | <4
Cc1cc(=O)n2c3c(c(F)cnc13)[C@@](O)(CC13CCC(NCc4ccc5c(n4)NC(=O)CO5)(CC1)CO3)C2 | <4
O=C1COc2ccc(CNC34CCC(C[C@@]5(O)CN6C(=O)CCc7ncc(F)c5c76)(CC3)OC4)nc2N1 | <4
Cc1cc(=O)n2c3c(c(F)cnc13)[C@](O)(CC13CCC(NCc4ccc5c(n4)NC(=O)CO5)(CC1)CO3)C2 | <4
CO[C@]1(CC23CCC(NCc4ccc5c(n4)NC(=O)CO5)(CC2)CO3)Cn2c(=O)ccc3ncc(F)c1c32 | <4

Tested on: Streptococcus pneumoniae
Experiment: Antimicrobial activity against Streptococcus pneumoniae IID554 by micro broth dilution or agar based method
Assay type: functional
Conditions: not given

SMILES | MIC
O=C1COc2ccc(CNC34CCC(CC5Cn6c(=O)ccc7ncc(F)c5c76)(CC3)OC4)nc2N1 (stereo in doubt; 10) | 0.5 µg/mL (≈ 1.02 µM)

Same assay, conditions: Streptococcus pneumoniae, IID554; read-out: MIC

SMILES | MIC
O=C1COc2ccc(CNC34CCC(C[C@]5(O)Cn6c(=O)c(F)cc7ncc(F)c5c76)(CC3)OC4)nc2N1 | 0.5 µg/mL (≈ 0.951 µM)
Cc1cc(=O)n2c3c(c(F)cnc13)[C@@](O)(CC13CCC(NCc4ccc5c(n4)NC(=O)CO5)(CC1)CO3)C2 | 8 µg/mL (≈ 15.3 µM)
O=C1COc2ccc(CNC34CCC(C[C@@]5(O)CN6C(=O)CCc7ncc(F)c5c76)(CC3)OC4)nc2N1 | 32 µg/mL (≈ 62.8 µM)
Cc1cc(=O)n2c3c(c(F)cnc13)[C@](O)(CC13CCC(NCc4ccc5c(n4)NC(=O)CO5)(CC1)CO3)C2 | 1 µg/mL (≈ 1.92 µM)
CO[C@]1(CC23CCC(NCc4ccc5c(n4)NC(=O)CO5)(CC2)CO3)Cn2c(=O)ccc3ncc(F)c1c32 | 32 µg/mL (≈ 61.4 µM)

Tested on: Staphylococcus aureus
Experiment: Antimicrobial activity against Staphylococcus aureus Smith by micro broth dilution or agar based method
Assay type: functional
Conditions: not given

SMILES | MIC
O=C1COc2ccc(CNC34CCC(CC5Cn6c(=O)ccc7ncc(F)c5c76)(CC3)OC4)nc2N1 (stereo in doubt; 10) | 0.5 µg/mL (≈ 1.02 µM)

Same assay, conditions: Staphylococcus aureus, Smith; read-out: MIC

SMILES | MIC
O=C1COc2ccc(CNC34CCC(C[C@]5(O)Cn6c(=O)c(F)cc7ncc(F)c5c76)(CC3)OC4)nc2N1 | 0.25 µg/mL (≈ 0.476 µM)
Cc1cc(=O)n2c3c(c(F)cnc13)[C@@](O)(CC13CCC(NCc4ccc5c(n4)NC(=O)CO5)(CC1)CO3)C2 | 8 µg/mL (≈ 15.3 µM)
O=C1COc2ccc(CNC34CCC(C[C@@]5(O)CN6C(=O)CCc7ncc(F)c5c76)(CC3)OC4)nc2N1 | 8 µg/mL (≈ 15.7 µM)
Cc1cc(=O)n2c3c(c(F)cnc13)[C@](O)(CC13CCC(NCc4ccc5c(n4)NC(=O)CO5)(CC1)CO3)C2 | 0.5 µg/mL (≈ 0.959 µM)
CO[C@]1(CC23CCC(NCc4ccc5c(n4)NC(=O)CO5)(CC2)CO3)Cn2c(=O)ccc3ncc(F)c1c32 | 8 µg/mL (≈ 15.3 µM)

Tested on: Haemophilus influenzae
Experiment: Antimicrobial activity against Haemophilus influenzae ATCC 49247 by micro broth dilution or agar based method
Assay type: functional
Conditions: not given

SMILES | MIC
O=C1COc2ccc(CNC34CCC(C[C@]5(O)Cn6c(=O)c(F)cc7ncc(F)c5c76)(CC3)OC4)nc2N1 | 1 µg/mL (≈ 1.9 µM)
Cc1cc(=O)n2c3c(c(F)cnc13)[C@@](O)(CC13CCC(NCc4ccc5c(n4)NC(=O)CO5)(CC1)CO3)C2 | 16 µg/mL (≈ 30.7 µM)
Cc1cc(=O)n2c3c(c(F)cnc13)[C@](O)(CC13CCC(NCc4ccc5c(n4)NC(=O)CO5)(CC1)CO3)C2 | 4 µg/mL (≈ 7.67 µM)

Tested on: Enterococcus faecium
Experiment: Antimicrobial activity against vancomycin-resistant Enterococcus faecium A2373 expressing VanA by micro broth dilution or agar based method
Assay type: functional
Conditions: not given

SMILES | MIC
O=C1COc2ccc(CNC34CCC(CC5Cn6c(=O)ccc7ncc(F)c5c76)(CC3)OC4)nc2N1 (stereo in doubt; 10) | 4 µg/mL (≈ 8.14 µM)

Same assay, conditions: Enterococcus faecium, A2373; read-out: MIC

SMILES | MIC
O=C1COc2ccc(CNC34CCC(C[C@]5(O)Cn6c(=O)c(F)cc7ncc(F)c5c76)(CC3)OC4)nc2N1 | 4 µg/mL (≈ 7.61 µM)
Cc1cc(=O)n2c3c(c(F)cnc13)[C@@](O)(CC13CCC(NCc4ccc5c(n4)NC(=O)CO5)(CC1)CO3)C2 | 32 µg/mL (≈ 61.4 µM)
O=C1COc2ccc(CNC34CCC(C[C@@]5(O)CN6C(=O)CCc7ncc(F)c5c76)(CC3)OC4)nc2N1 | 32 µg/mL (≈ 62.8 µM)
Cc1cc(=O)n2c3c(c(F)cnc13)[C@](O)(CC13CCC(NCc4ccc5c(n4)NC(=O)CO5)(CC1)CO3)C2 | 8 µg/mL (≈ 15.3 µM)
CO[C@]1(CC23CCC(NCc4ccc5c(n4)NC(=O)CO5)(CC2)CO3)Cn2c(=O)ccc3ncc(F)c1c32 | 32 µg/mL (≈ 61.4 µM)

Target: T1, Voltage-gated inwardly rectifying potassium channel KCNH2
Experiment: Inhibition of human ERG expressed in CHO cells by Patch express assay
Assay type: cell-based
Conditions: not given

SMILES | IC50
O=C1COc2ccc(CNC34CCC(CC5Cn6c(=O)ccc7ncc(F)c5c76)(CC3)OC4)nc2N1 (stereo in doubt; 10) | 21.6 µM

Tested on: Enterococcus faecalis
Experiment: Antimicrobial activity against Enterococcus faecalis ATCC 29212 MB by micro broth dilution or agar based method
Assay type: functional
Conditions: not given

SMILES | MIC
O=C1COc2ccc(CNC34CCC(CC5Cn6c(=O)ccc7ncc(F)c5c76)(CC3)OC4)nc2N1 (stereo in doubt; 10) | 2 µg/mL (≈ 4.07 µM)

Same assay, conditions: Enterococcus faecalis, ATCC 29212 MB; read-out: MIC

SMILES | MIC
O=C1COc2ccc(CNC34CCC(C[C@]5(O)Cn6c(=O)c(F)cc7ncc(F)c5c76)(CC3)OC4)nc2N1 | 2 µg/mL (≈ 3.81 µM)
Cc1cc(=O)n2c3c(c(F)cnc13)[C@@](O)(CC13CCC(NCc4ccc5c(n4)NC(=O)CO5)(CC1)CO3)C2 | 16 µg/mL (≈ 30.7 µM)
O=C1COc2ccc(CNC34CCC(C[C@@]5(O)CN6C(=O)CCc7ncc(F)c5c76)(CC3)OC4)nc2N1 | 32 µg/mL (≈ 62.8 µM)
Cc1cc(=O)n2c3c(c(F)cnc13)[C@](O)(CC13CCC(NCc4ccc5c(n4)NC(=O)CO5)(CC1)CO3)C2 | 4 µg/mL (≈ 7.67 µM)
CO[C@]1(CC23CCC(NCc4ccc5c(n4)NC(=O)CO5)(CC2)CO3)Cn2c(=O)ccc3ncc(F)c1c32 | 32 µg/mL (≈ 61.4 µM)

Tested on: Pseudomonas aeruginosa
Experiment: Antimicrobial activity against Pseudomonas aeruginosa PAO1 by micro broth dilution or agar based method
Assay type: functional
Conditions: not given

SMILES | MIC
O=C1COc2ccc(CNC34CCC(CC5Cn6c(=O)ccc7ncc(F)c5c76)(CC3)OC4)nc2N1 (stereo in doubt; 10) | 16 µg/mL (≈ 32.6 µM)

Same assay, conditions: Pseudomonas aeruginosa, PAO1; read-out: MIC

SMILES | MIC
O=C1COc2ccc(CNC34CCC(C[C@]5(O)Cn6c(=O)c(F)cc7ncc(F)c5c76)(CC3)OC4)nc2N1 | 16 µg/mL (≈ 30.4 µM)
Cc1cc(=O)n2c3c(c(F)cnc13)[C@@](O)(CC13CCC(NCc4ccc5c(n4)NC(=O)CO5)(CC1)CO3)C2 | 32 µg/mL (≈ 61.4 µM)
O=C1COc2ccc(CNC34CCC(C[C@@]5(O)CN6C(=O)CCc7ncc(F)c5c76)(CC3)OC4)nc2N1 | 32 µg/mL (≈ 62.8 µM)
Cc1cc(=O)n2c3c(c(F)cnc13)[C@](O)(CC13CCC(NCc4ccc5c(n4)NC(=O)CO5)(CC1)CO3)C2 | 32 µg/mL (≈ 61.4 µM)
CO[C@]1(CC23CCC(NCc4ccc5c(n4)NC(=O)CO5)(CC2)CO3)Cn2c(=O)ccc3ncc(F)c1c32 | 32 µg/mL (≈ 61.4 µM)

Tested on: Escherichia coli
Experiment: Antimicrobial activity against Escherichia coli ATCC 25922 by micro broth dilution or agar based method
Assay type: functional
Conditions: not given

SMILES | MIC
O=C1COc2ccc(CNC34CCC(CC5Cn6c(=O)ccc7ncc(F)c5c76)(CC3)OC4)nc2N1 (stereo in doubt; 10) | 2 µg/mL (≈ 4.07 µM)

Same assay, conditions: Escherichia coli, ATCC 25922; read-out: MIC

SMILES | MIC
O=C1COc2ccc(CNC34CCC(C[C@]5(O)Cn6c(=O)c(F)cc7ncc(F)c5c76)(CC3)OC4)nc2N1 | 4 µg/mL (≈ 7.61 µM)
Cc1cc(=O)n2c3c(c(F)cnc13)[C@@](O)(CC13CCC(NCc4ccc5c(n4)NC(=O)CO5)(CC1)CO3)C2 | 32 µg/mL (≈ 61.4 µM)
O=C1COc2ccc(CNC34CCC(C[C@@]5(O)CN6C(=O)CCc7ncc(F)c5c76)(CC3)OC4)nc2N1 | 32 µg/mL (≈ 62.8 µM)
Cc1cc(=O)n2c3c(c(F)cnc13)[C@](O)(CC13CCC(NCc4ccc5c(n4)NC(=O)CO5)(CC1)CO3)C2 | 8 µg/mL (≈ 15.3 µM)
CO[C@]1(CC23CCC(NCc4ccc5c(n4)NC(=O)CO5)(CC2)CO3)Cn2c(=O)ccc3ncc(F)c1c32 | 32 µg/mL (≈ 61.4 µM)

Tested on: Moraxella catarrhalis
Experiment: Antimicrobial activity against Moraxella catarrhalis ATCC 25238 by micro broth dilution or agar based method
Assay type: functional
Conditions: not given

SMILES | MIC
O=C1COc2ccc(CNC34CCC(C[C@]5(O)Cn6c(=O)c(F)cc7ncc(F)c5c76)(CC3)OC4)nc2N1 | 0.25 µg/mL (≈ 0.476 µM)
Cc1cc(=O)n2c3c(c(F)cnc13)[C@@](O)(CC13CCC(NCc4ccc5c(n4)NC(=O)CO5)(CC1)CO3)C2 | 2 µg/mL (≈ 3.83 µM)
Cc1cc(=O)n2c3c(c(F)cnc13)[C@](O)(CC13CCC(NCc4ccc5c(n4)NC(=O)CO5)(CC1)CO3)C2 | 0.5 µg/mL (≈ 0.959 µM)

Tested on: Acinetobacter baumannii
Experiment: Antimicrobial activity against Acinetobacter baumannii IID876 by micro broth dilution or agar based method
Assay type: functional
Conditions: not given

SMILES | MIC
O=C1COc2ccc(CNC34CCC(CC5Cn6c(=O)ccc7ncc(F)c5c76)(CC3)OC4)nc2N1 (stereo in doubt; 10) | 8 µg/mL (≈ 16.3 µM)

Same assay, conditions: Acinetobacter baumannii, IID876; read-out: MIC

SMILES | MIC
O=C1COc2ccc(CNC34CCC(C[C@]5(O)Cn6c(=O)c(F)cc7ncc(F)c5c76)(CC3)OC4)nc2N1 | 4 µg/mL (≈ 7.61 µM)
Cc1cc(=O)n2c3c(c(F)cnc13)[C@@](O)(CC13CCC(NCc4ccc5c(n4)NC(=O)CO5)(CC1)CO3)C2 | 2 µg/mL (≈ 3.83 µM)
O=C1COc2ccc(CNC34CCC(C[C@@]5(O)CN6C(=O)CCc7ncc(F)c5c76)(CC3)OC4)nc2N1 | 32 µg/mL (≈ 62.8 µM)
Cc1cc(=O)n2c3c(c(F)cnc13)[C@](O)(CC13CCC(NCc4ccc5c(n4)NC(=O)CO5)(CC1)CO3)C2 | 0.5 µg/mL (≈ 0.959 µM)
CO[C@]1(CC23CCC(NCc4ccc5c(n4)NC(=O)CO5)(CC2)CO3)Cn2c(=O)ccc3ncc(F)c1c32 | 32 µg/mL (≈ 61.4 µM)
